*1 amine or outer side, *2 acyl side, *3 side chain or, on linkers, in order; H or OH if unused. Where no end group is shown, it is not given here. [ ]: non-standard residue; d: D form. γGlu = O=C(O)[C@H](CCC(=O)[*:2])N[*:1]; Met(O) = CS(=O)CC[C@H](N)C(=O)O; Orn = NCCC[C@H](N)C(=O)O
How the values were obtained:
human calcium receptor = biological target: T1, human calcium receptor (Homo sapiens, UniProt P41180); test: Calcium receptor-activating effect, Ca ion concentration-dependent Cl ionic current in Xenopus laevis oocyte expression system; assay type: cell-based; details: for Activity (lowest concentration at which current is detected): peptide added at 1,000 to 0.1 μM, Ca ion concentration-dependent Cl response current, oocytes voltage-clamped at −70 mV; for calcium receptor-activating effect (Ca ion concentration-dependent Cl response current): amino acid added at 10 mM
T1 construct: expressed in transfected cells; host or cells: Xenopus laevis oocytes injected with receptor cRNA; the gene was amplified by PCR from human kidney cDNA (Clontech) and cloned in pBR322
T1 sequence (P41180 20-1078): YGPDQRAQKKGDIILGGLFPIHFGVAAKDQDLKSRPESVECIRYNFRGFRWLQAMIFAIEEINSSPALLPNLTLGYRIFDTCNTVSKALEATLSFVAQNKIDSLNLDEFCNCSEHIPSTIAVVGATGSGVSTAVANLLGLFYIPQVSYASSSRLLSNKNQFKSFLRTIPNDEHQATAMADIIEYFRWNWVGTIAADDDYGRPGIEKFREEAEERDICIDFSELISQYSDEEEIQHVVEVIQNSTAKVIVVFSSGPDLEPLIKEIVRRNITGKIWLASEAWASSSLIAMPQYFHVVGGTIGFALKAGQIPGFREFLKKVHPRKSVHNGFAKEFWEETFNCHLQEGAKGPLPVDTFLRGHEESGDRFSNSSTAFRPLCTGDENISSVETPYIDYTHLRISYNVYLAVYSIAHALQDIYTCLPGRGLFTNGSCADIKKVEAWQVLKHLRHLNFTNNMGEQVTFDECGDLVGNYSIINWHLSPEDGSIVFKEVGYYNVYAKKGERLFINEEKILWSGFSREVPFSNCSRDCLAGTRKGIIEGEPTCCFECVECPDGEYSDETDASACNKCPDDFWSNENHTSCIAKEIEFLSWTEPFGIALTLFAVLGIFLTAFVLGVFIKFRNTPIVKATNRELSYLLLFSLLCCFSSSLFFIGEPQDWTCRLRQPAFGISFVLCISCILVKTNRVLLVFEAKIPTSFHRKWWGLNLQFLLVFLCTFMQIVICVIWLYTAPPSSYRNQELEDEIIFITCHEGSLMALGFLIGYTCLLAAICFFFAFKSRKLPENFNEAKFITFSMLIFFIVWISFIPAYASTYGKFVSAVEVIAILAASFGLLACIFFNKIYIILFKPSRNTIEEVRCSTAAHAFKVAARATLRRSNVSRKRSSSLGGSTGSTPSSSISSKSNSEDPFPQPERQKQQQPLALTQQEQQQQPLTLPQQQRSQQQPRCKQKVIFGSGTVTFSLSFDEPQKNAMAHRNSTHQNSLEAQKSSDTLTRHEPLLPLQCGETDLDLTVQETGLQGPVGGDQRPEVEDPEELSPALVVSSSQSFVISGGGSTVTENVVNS
Procedure: For evaluation of the calcium receptor-activating effect, Ca ion concentration-dependent Cl ionic current measuring method using a Xenopus laevis oocyte expression system was used. If activator is added to Xenopus laevis oocytes in which the calcium receptor is expressed, intracellular Ca ions increase. Then, the Ca ion concentration-dependent Cl channel opens, and the intracellular current value changes as an ionic current. By measuring the change in the intracellular current value, whether the calcium receptor-activating effect is present or not can be determined.
Specifically, the abdomen of Xenopus laevis was opened, and an egg batch was taken out and then treated with a 1% collagenase solution at 20° C. for 2 hours to obtain individual oocytes. Into each oocyte, 50 nl of 1 μg/μl receptor cRNA or 50 nl of sterilized water per oocyte were injected by using a micro glass capillary, and the oocytes were cultured at 18° C. for 2 to 3 days. For the culture, a solution obtained by adding 2 mM of pyruvic acid, 10 U/ml of penicillin and 10 μg/ml of streptomycin to the solution in Reference Example 2 was used. After the culture, a test solution was added to the oocytes injected with cRNA or sterilized water. Electrophysiological measurement was performed by using an amplifier Geneclamp 500 (manufactured by Axon) and recording software AxoScope 9.0 (manufactured by Axon). The oocytes were voltage-clamped at −70 mV by the double electrode voltage clamp method, and the intracellular current via the Ca ion concentration-dependent Cl ion was measured. The maximum value of the intracellular currents was defined as the response current value.
The ability of L-amino acids to activate the calcium receptor was evaluated by using the method described in Reference Example 6. That is, oocytes injected with cRNA of the calcium receptor or sterilized water were prepared, and voltage-clamped at −70 mV by the double electrode voltage clamp method. To the voltage-clamped oocytes, alanine (10 mM), arginine (10 mM), asparagine (10 mM), aspartic acid (10 mM), cysteine (10 mM), glutamine (10 mM), glutamic acid (10 mM), glycine (10 mM), histidine (10 mM), isoleucine (10 mM), leucine (10 mM), lysine (10 mM), methionine (10 mM), phenylalanine (10 mM), proline (10 mM), serine (10 mM), threonine (10 mM), tryptophan (10 mM), tyrosine (10 mM), valine (10 mM), ornithine (10 mM), taurine (10 mM) or hydroxyproline (10 mM) was added, and Ca ion concentration-dependent Cl response current was measured. […] 25, 2000, 97(9): 4814-9.
The effect of D-cysteine for activating a calcium receptor was evaluated by using the method described in Reference Example 6. That is, oocytes injected with cRNA of the calcium receptor or sterilized water were prepared, and voltage-clamped at −70 mV by the double electrode voltage clamp method. To the voltage-clamped oocytes, D-cysteine (10 mM), L-cysteine (10 mM), D-tryptophan (10 mM) or L-tryptophan (10 mM) was added, and Ca ion concentration-dependent Cl response current was measured.
The effect of peptide for activating calcium receptor was evaluated by using the method described in Reference Example 6. That is, oocytes injected with cRNA of the calcium receptor or sterilized water were prepared, and voltage-clamped at −70 mV by the double electrode voltage clamp method. To the voltage-clamped oocytes, γ-Glu-Cys-Gly (50 μM), γ-Glu-Cys(SNO)-Gly (50 μM), γ-Glu-Ala (50 μM), γ-Glu-Gly (500 μM), γ-Glu-Cys (50 μM), γ-Glu-Met (500 μM), γ-Glu-Thr (50 μM), γ-Glu-Val (50 μM), γ-Glu-Orn (500 μM), Asp-Gly (1 mM), Cys-Gly (1 mM), Cys-Met (1 mM), Glu-Cys (50 μM), Gly-Cys (500 μM) or Leu-Asp (1 mM) was added, and Ca ion concentration-dependent Cl response current was measured.
The ability of a peptide to activate calcium receptor was evaluated in the same manner as that of Reference Example 10.

[1] = Quantitative sensory evaluation test, intensity of kokumi-imparting activity; details: sample 0.1 g/dl; for Kokumi intensity, aftertaste / Kokumi intensity, initial and middle taste: control 0, glutathione 3 points
Procedure: The quantitative sensory evaluation test was performed as follows. […] When a sample is acidic when dissolved, the pH was adjusted with NaOH to pH 6.8 to 7.2 before use. Because it is known that glutathione can impart kokumi to a food, glutathione was used as a comparative control. The test was performed with n=3 based on the following sensory evaluation scores: control was given 0 points, glutathione addition was given 3 points. […] It should be noted that the term “initial and middle taste” is a collective term of the initial taste and middle taste.
The quantitative sensory evaluation test was performed as follows. […] When a sample is acidic when dissolved, the pH of the sample was adjusted with NaOH to pH 6.8 to 7.2 before use. The test was performed with n=5 based on the following sensory evaluation scores: control was given 0 point and glutathione addition was given 3 points.
The quantitative sensory evaluation test was performed as follows. […] As for a sample which is acidic when the sample is dissolved, pH of the sample was adjusted with NaOH to pH 6.8 to 7.2 before use. The test was performed with n=12 based on the following sensory evaluation scores: control: 0 point and glutathione addition: 3 points.

Compound: [γGlu]-Met
- effect for activating calcium receptor (Cl response current) (human calcium receptor; peptide added at 500 μM): definite effect for activating calcium receptor
- Kokumi intensity, aftertaste ([1]; n=3): 0.4 points
- Kokumi intensity, initial and middle taste ([1]; n=3): 1.5 points

Compound: Gly-Cys
- effect for activating calcium receptor (Cl response current) (human calcium receptor; peptide added at 500 μM): definite effect for activating calcium receptor

Compound: [γGlu]-Thr
- effect for activating calcium receptor (Cl response current) (human calcium receptor; peptide added at 50 μM): definite effect for activating calcium receptor

Compound: [γGlu]-Val-Cys
- Activity (lowest concentration at which current is detected) (human calcium receptor): 10 µM

Compound: [γGlu]-Val-Gln
- Activity (lowest concentration at which current is detected) (human calcium receptor): 10 µM

Compound: [γGlu]-Gly-Gly [γ-Glu-Glγ-Gly]
- Activity (lowest concentration at which current is detected) (human calcium receptor): 30 µM

Compound: N[C@@H](CCC(=O)N[C@@H](CSN=O)C(=O)NCC(=O)O)C(=O)O [γ-Glu-Cys(SNO)-Gly]
- effect for activating calcium receptor (Cl response current) (human calcium receptor; peptide added at 50 μM): definite effect for activating calcium receptor

Compound: [γGlu]-Val-His
- Activity (lowest concentration at which current is detected) (human calcium receptor): 100 µM

Compound: γ-Glu-t-Leu
- Activity (lowest concentration at which current is detected) (human calcium receptor): 100 µM

Compound: [γGlu]-Cys
- effect for activating calcium receptor (Cl response current) (human calcium receptor; peptide added at 50 μM): definite effect for activating calcium receptor
- Kokumi intensity, aftertaste ([1]; n=5): 2.0 points
- Kokumi intensity, initial and middle taste ([1]; n=5): 2.0 points
- Taste profile ([1]; n=5): A slightly

Compound: [γGlu]-Val-NH2
- Activity (lowest concentration at which current is detected) (human calcium receptor): 1,000 μM

Compound: [γGlu]-[γGlu]-Val
- Activity (lowest concentration at which current is detected) (human calcium receptor): 1,000 μM

Compound: N[C@@H](CS)C(=O)O [cysteine, reference compound]
- calcium receptor-activating effect (Ca ion concentration-dependent Cl response current) (human calcium receptor): definite calcium receptor-activating effect

Compound: [γGlu]-Val-Met
- Activity (lowest concentration at which current is detected) (human calcium receptor): 1,000 μM

Compound: [γGlu]-Val
- effect for activating calcium receptor (Cl response current) (human calcium receptor; peptide added at 50 μM): definite effect for activating calcium receptor
- Kokumi intensity, aftertaste ([1]; n=3): 1.0 points
- Kokumi intensity, initial and middle taste ([1]; n=3): 3.0 points
- Kokumi intensity, aftertaste ([1]; n=5): 1.0 points
- Kokumi intensity, initial and middle taste ([1]; n=5): 3.0 points

Compound: Cys-Gly
- effect for activating calcium receptor (Cl response current) (human calcium receptor; peptide added at 1 mM): definite effect for activating calcium receptor

Compound: N[C@@H](Cc1ccccc1)C(=O)O [phenylalanine, reference compound]
- calcium receptor-activating effect (Ca ion concentration-dependent Cl response current) (human calcium receptor): definite calcium receptor-activating effect

Compound: [γGlu]-Val-Arg
- Activity (lowest concentration at which current is detected) (human calcium receptor): 1,000 μM

Compound: [γGlu]-Val-Pro
- Activity (lowest concentration at which current is detected) (human calcium receptor): 30 µM

Compound: γ-Glu-Cys(S-allyl)-Gly
- Activity (lowest concentration at which current is detected) (human calcium receptor): 100 µM

Compound: γ-Glu-Orn
- effect for activating calcium receptor (Cl response current) (human calcium receptor; peptide added at 500 μM): definite effect for activating calcium receptor

Compound: [γGlu]-Val-[Orn]
- Activity (lowest concentration at which current is detected) (human calcium receptor): 100 µM

Compound: [γGlu]-Ser-Gly
- Activity (lowest concentration at which current is detected) (human calcium receptor): 30 µM

Compound: Glu-Cys
- effect for activating calcium receptor (Cl response current) (human calcium receptor; peptide added at 50 μM): definite effect for activating calcium receptor

Compound: [γGlu]-Val-Thr
- Activity (lowest concentration at which current is detected) (human calcium receptor): 1,000 μM

Compound: γ-Glu-Val-ol
- Activity (lowest concentration at which current is detected) (human calcium receptor): 1,000 μM

Compound: N[C@@H](Cc1c[nH]c2ccccc12)C(=O)O [tryptophan, reference compound]
- calcium receptor-activating effect (Ca ion concentration-dependent Cl response current) (human calcium receptor): definite calcium receptor-activating effect

Compound: [γGlu]-Val-Phe
- Activity (lowest concentration at which current is detected) (human calcium receptor): 30 µM

Compound: [γGlu]-Val-Glu
- Activity (lowest concentration at which current is detected) (human calcium receptor): 1,000 μM

Compound: [γGlu]-Val-Asn
- Activity (lowest concentration at which current is detected) (human calcium receptor): 30 µM

Compound: Cys-Met
- effect for activating calcium receptor (Cl response current) (human calcium receptor; peptide added at 1 mM): definite effect for activating calcium receptor

Compound: [γGlu]-Val-Val
- Activity (lowest concentration at which current is detected) (human calcium receptor): 1,000 μM

Compound: N[C@H](CS)C(=O)O [D-cysteine]
- calcium receptor-activating effect (Ca ion concentration-dependent Cl response current) (human calcium receptor): definite calcium receptor-activating effect

Compound: [γGlu]-Val-Lys
- Activity (lowest concentration at which current is detected) (human calcium receptor): 1,000 μM

Compound: [γGlu]-Ala
- effect for activating calcium receptor (Cl response current) (human calcium receptor; peptide added at 50 μM): definite effect for activating calcium receptor
- Kokumi intensity, aftertaste ([1]; n=3): 0.2 points
- Kokumi intensity, initial and middle taste ([1]; n=3): 0.5 points

Compound: [γGlu]-[Met(O)]
- Activity (lowest concentration at which current is detected) (human calcium receptor): 1,000 μM

Compound: N[C@@H](Cc1c[nH]cn1)C(=O)O [histidine, reference compound]
- calcium receptor-activating effect (Ca ion concentration-dependent Cl response current) (human calcium receptor): definite calcium receptor-activating effect

Compound: γ-Glu-Tau
- Activity (lowest concentration at which current is detected) (human calcium receptor): 300 µM

Compound: N[C@@H](Cc1ccc(O)cc1)C(=O)O [tyrosine, reference compound]
- calcium receptor-activating effect (Ca ion concentration-dependent Cl response current) (human calcium receptor): definite calcium receptor-activating effect

Compound: [γGlu]-Val-Ser
- Activity (lowest concentration at which current is detected) (human calcium receptor): 30 µM

Compound: Asp-Gly
- effect for activating calcium receptor (Cl response current) (human calcium receptor; peptide added at 1 mM): definite effect for activating calcium receptor

Compound: γ-Glu-Cys(S-Me)-Gly
- Activity (lowest concentration at which current is detected) (human calcium receptor): 3 µM

Compound: Leu-Asp
- effect for activating calcium receptor (Cl response current) (human calcium receptor; peptide added at 1 mM): definite effect for activating calcium receptor

Compound: γ-Glu-Val-Asp
- Activity (lowest concentration at which current is detected) (human calcium receptor): 1,000 μM

Compound: [γGlu]-Gly
- effect for activating calcium receptor (Cl response current) (human calcium receptor; peptide added at 500 μM): definite effect for activating calcium receptor

— US9420813B2, “Sweetener” (AJINOMOTO CO., INC., priority 2007, dated 2016)
